Our source for the MIC values is ChEMBL document CHEMBL4371100, “Antimicrobial Chrysophaentin Analogs Identified from Laboratory Cultures of the Marine Microalga Chrysophaeum taylorii” (2019).

For this experiment, the system named is Staphylococcus aureus. In words: Antibacterial activity against Staphylococcus aureus ATCC 29213 by CLSI method. The class given is functional.

Values after ≈ are worked out from the molar mass of the structure shown.

In turn, `Oc1cc(C/C=C(/Cl)Cc2c(Br)c(O)cc(O)c2Br)c(O)cc1Cl` yielded an MIC of 10 µg/mL (≈ 20 µM). With `Oc1cc(C/C=C\Cc2c(Br)c(O)cc(O)c2Br)c(O)cc1Br`, inhibition of growth (MIC) required 40 µg/mL (≈ 78.6 µM). Molecule `Oc1cc(C/C=C\Cc2c(Br)c(O)cc(O)c2Br)c(O)cc1Cl` had an MIC of 40 µg/mL (≈ 86.1 µM).

Molecule `Oc1cc(O)cc(C/C(Cl)=C\Cc2cc(O)c(-c3c(O)cc(C/C(Cl)=C\Cc4cc(O)c(Cl)cc4O)cc3O)cc2O)c1` gave an MIC of 10 µg/mL (≈ 15.5 µM).
